# Patent US10314816B2, “Antimicrobial compounds, compositions and methods of use thereof” (Wisconsin Alumni Research Foundation, priority 2012, dated 2019)
# Key:
# [1] = tested on: C. crescentus CB15N; assay: MIC of bacterial growth, macrodilution (Table 2); format: cell-based, Caulobacter crescentus; conditions: Caulobacter vibrioides, actively growing cells, read-out: MIC
# Method: Bacterial strains and growth conditions. Luria-Bertani (LB) media (10 g/L tryptone, 10 g/L NaCl, 5 g/L yeast extract, pH 7.2) was used to grow B. subtilis 168, S. aureus FRI100, and P. aeruginosa K1115 strains. For P. aeruginosa PAO1 and K1119 strains and two E. coli BW25113 strains, M8 minimal media (241 mg/L MgSO4, 4 mg/L glucose, 5 mg/L casamino acids, 12.8 g/L Na2HPO4.7H2O, 3 g/L KH2PO4, and 0.5 g/L NaCl) was used. PYE media (2 g/L peptone, 1 g/L yeast extract, 0.8 mM MgSO4, and 0.5 mM CaCl2) was used for culturing C. crescentus cells at 30° C. All cultures were grown at 37° C., except for C. crescentus (30° C.). All cultures were grown while shaking at 200 rpm.
# Determination of the minimum inhibitory concentration (MIC) of bacterial growth. The MIC of various organisms in liquid media was determined using the macrodilution method according to the NCCLS guidelines. For the starting inoculum, cultures were diluted to contain approximately 5×10^5 cells/mL in growth media. To create a two-fold dilution series for the macrodilution technique, each compound was added to the first culture tube (4 mL total volume) at the highest concentration. 2 mL of this culture was diluted into an equal volume of inoculated media (a two-fold dilution). The final volume for each culture was 2 mL.
# [2] = tested on: S. aureus FRI 100; assay: Minimum biofilm inhibitory concentration (bMIC); format: cell-based, Staphylococcus aureus; conditions: S. aureus FRI 100 biofilm
# Method: Determination of the minimum biofilm inhibitory concentration of growth (bMIC) and biofilm eradication concentration (MBEC). Overnight cultures of C. crescentus and S. aureus were grown and diluted 100-fold into appropriate nutrient media. Aliquots of the diluted suspension were transferred into wells of 96-well plates (150 μL/well). 2-fold serial dilutions were performed for compound-containing wells. For every experiment, three replicates for each compound concentration tested were included. After transferring aliquots of the suspension, the plates were closed with specialized lids that have protruding pins (Nunc STP System), and the plates were sealed using Parafilm®. The plates were incubated in a static incubator at 30° C. (C. crescentus) or 37° C. (S. aureus) for 24 hours. After the cells had formed biofilms on the surface of the pins, the pins were rinsed by dipping them in M2 (C. crescentus) or PBS (S. aureus) solutions. To rinse the pins, clean, sterile 96-well plates were used (aliquots of 200 μL/well); each rinse lasted 10 sec. After washing away planktonic cells loosely bound to biofilms, the pins were inserted into a 96-well plate that was pre-aliquoted with nutrient media containing antibiotics (2-fold dilutions, a final volume of 150 μL/well). The plates were sealed with Parafilm®, and incubated for 17 hours, and the bMIC was measured at the end of the incubation by visual inspection. […] The plates were sealed with Parafilm®, incubated for 24 hours, and the MBEC was measured at the end of the incubation by visual inspection.
# Membrane-active compounds are also efficient at eradicating biofilm-associated cells (Table 2). […] To determine the efficacy of antibiotics against biofilms, the minimum biofilm inhibitory concentration (bMIC) and the minimum biofilm eradication concentration (MBEC) were measured. […] After 24 hours of exposure to compounds, the lowest concentration of antibiotic that inhibited planktonic cell growth in the wells (bMIC) was determined.
# [3] = tested on: B. subtilis cells; assay: Measurement of ΔΨ using DiOC2, flow cytometry; format: cell-based, Bacillus subtilis; conditions: 20 minutes of treatment, p<0.001
# Method: Fluorescence microscopy and flow cytometry to measure ΔΨ. The fluorescent probe, 3,3′-diethyloxacarbocyanine iodide (DiOC2) was used to measure ΔΨ in DMSO and in compound-treated cells. To eliminate the possibility of an interaction between the probe and compounds, the fluorescence intensity of solutions of DiOC2 was measured in the presence and absence of the compounds as described in the art. To measure ΔΨ in B. subtilis cells, flow cytometry was used. Cell suspensions were labeled with 30 μM DiOC2 and filtered through a Nylon filter containing 60-μm diameter pores. The fluorescence of these cells was measured using a BD LSR II flow cytometer. The following instrument settings were used for detection: low flow rate, 488 nm excitation laser, 530/30 nm emission filter for green fluorescence, and 575/26 nm emission filter for red fluorescence. […] First, a gate was drawn around the region where cells were detected in the forward versus side scatter area plot. Gating enabled the exclusion of any non-cellular materials in the sample that the instrument detected. The ratio of red-to-green fluorescence was calculated for each particle within the gate using the software, and the resulting data was exported to GraphPad Prism to create box plots shown in FIG. 5. Statistical parameters were calculated using the Kruskal-Wallis non-parametric one-way analysis of variation (GraphPad InStat). […]
SMILES,MIC [1],bMIC [2],ΔΨ (λ576/λ530 of DiOC2) [3]
"N#CC(C#N)=NNc1cccc(Cl)c1 [CCCP, carbonyl cyanide m-chlorophenyl hydrazone]",5 µM,2.5 µM,significant decrease in λ576/λ530
"OCC(CO)(CO)NCC(O)Cn1c2ccc(Cl)cc2c2cc(Cl)ccc21 (stereo not drawn) [DCAP, 2-((3-(3,6-dichloro-9H-carbazol-9-yl)-2-hydroxypropyl)amino)-2-(hydroxymethyl)propane-1,3-diol]",15 µM,100 µM,significant decrease in λ576/λ530
